The values that follow come from PMC8400920, “Metabolism of Diterpenoids Derived from the Bark of Cinnamomum cassia in Human Liver Microsomes” (Pharmaceutics, 2021).

Entries after “also recorded” stand apart in the source; their conditions may differ.

Common to all, as to assay type: in vitro ADME
The test system of data set [1] is human liver microsomes (HLMs). Kind of data set: Metabolic stability of seven diterpenoids in human liver microsomes. As to conditions: 10 µM, 0.5 mg/mL HLMs, 37 °C, 60 min. As for the experimental part:
For metabolism profiling, 10 µM of each of the seven compounds isolated from C. cassia bark was added to 0.5 mg/mL of pooled HLMs and 0.1 M potassium phosphate buffer (pH 7.4). The HLMs were then preincubated at 37 °C for 1 min. After adding NGS, the reaction mixture was incubated at 37 °C for 60 min. After the 60 min incubation period, 50 µL of the reaction mixture was transferred to a new tube, and 50 µL of 100% ACN containing 0.1% formic acid and tolbutamide (internal standard) was added to terminate the reaction. The mixture was then vortexed, followed by centrifugation at 15,700× g (13,000 rpm) for 10 min (Eppendorf AG, Hamburg, Germany). Finally, 90 µL of the supernatant was transferred to a vial and injected into a C18 column for LC–MS/MS analysis.
The metabolism screening of the seven compounds was performed using an HPLC system (Thermo Fisher Scientific, Bremen, Germany) equipped with an HPG-3200SD standard binary pump, a WPS-3000 TRS analytical autosampler, and a TCC-3000 SD column compartment. The HPLC system was coupled with an HR-MS (Q-Exactive Focus Quadrupole-Orbitrap MS; Thermo Fisher Scientific, Waltham, MA, USA) at the Mass Spectrometry Convergence Research Center. The full MS resolution and scan ranges were 70,000 and 60–900 m/z, respectively. The MS/MS resolution was 35,000. The mass spectra were obtained in negative ion electrospray mode. A heated electrospray ionization (HESI-II) probe was used as an ion generator, with nitrogen as the sheath gas at 35 aux units and auxiliary gas at 12 aux units. The mass spectrometer was operated in negative ionization mode. The other parameters were as follows: spray voltage, 3.5 kV; capillary temperature, 320 °C; S-lens radio frequency level, 50; and aux gas heater temperature, 400 °C.
The mobile phase consisted of 100% water with 0.1% formic acid (mobile phase A) and 100% ACN with 0.1% formic acid (mobile phase B). For metabolic stability, the gradient conditions were set as follows: 5% of B at 0.5–2.0 min, 5–50% of B at 2.0–4.5 min, 50% of B at 4.5–7.0 min, and 50–5% of B at 7.0–10.0 min at 40 °C with a flow rate of 0.2 mL/min. For metabolite identification, the gradient conditions were as follows: 10% of B at 0–5 min, 10–55% of B at 5–15 min, 55% of B at 15–23 min, and 55–10% of B at 23–30 min with a flow rate of 0.25 mL/min. Chromatographic separation was performed using a Kinetex C18 column (150 × 2.1 mm, 2.6 μm, XB-C18 100 Å, S/No: H19-070128; Phenomenex, Torrance, CA, USA). Data were analyzed using Xcalibur version 4.0 software (Thermo Fisher Scientific, Waltham, MA, USA).
To confirm their metabolic stability, seven diterpenoids (AHC, anhydrocinnzeylanol, cinncassiol A, cinncassiol B, cinnzeylanol, cinnzeylanone, and cinnzeylanine) derived from the bark of C. cassia were incubated with HLMs in the presence of the NGS for 60 min (Figure 1B). The metabolic stability of each compound was determined according to the ratio of the peak area at 60 min to that at 0 min. […] Therefore, we identified the metabolites of AHC produced in HLMs.
In general terms: Microsomes from liver hold many membrane-bound enzymes, among them those of drug oxidation.

A further data set addresses T1, CYP1A1 (Homo sapiens, UniProt P04798).
T1 construct: purchased Corning Gentest
T1 sequence (P04798 1-512): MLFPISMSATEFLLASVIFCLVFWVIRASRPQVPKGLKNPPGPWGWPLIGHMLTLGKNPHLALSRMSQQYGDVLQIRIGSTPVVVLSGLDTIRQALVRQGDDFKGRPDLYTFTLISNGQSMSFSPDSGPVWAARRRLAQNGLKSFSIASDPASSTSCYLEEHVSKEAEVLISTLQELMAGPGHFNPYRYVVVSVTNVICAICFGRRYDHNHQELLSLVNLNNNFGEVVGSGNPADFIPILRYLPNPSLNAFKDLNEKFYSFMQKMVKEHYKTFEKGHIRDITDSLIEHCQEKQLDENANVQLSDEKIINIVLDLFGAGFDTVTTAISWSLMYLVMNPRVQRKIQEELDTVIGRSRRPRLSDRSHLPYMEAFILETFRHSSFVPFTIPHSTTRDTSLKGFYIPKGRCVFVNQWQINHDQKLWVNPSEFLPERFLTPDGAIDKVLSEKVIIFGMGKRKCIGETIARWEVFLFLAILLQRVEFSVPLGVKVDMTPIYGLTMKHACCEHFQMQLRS
Nature of the data set: AHC metabolism by recombinant cDNA-expressed CYP isoform. The conditions noted are these: 10 µM AHC, 10 pmol recombinant CYP, NGS, 37 °C, 60 min. As for the experimental part:
(§1) To identify the metabolic enzymes for AHC, 10 µM AHC was incubated with 10 pmol of human recombinant cDNA-expressed CYP isoforms (CYP1A1, 1A2, 2A6, 2B6, 2C8, 2C9, 2C19, 2D6, 2E1, 3A4, and 3A5) in the presence of 0.1 M potassium phosphate buffer (pH 7.4). The reaction was initiated by adding 100 µL of NGS at 37 °C for 60 min. Then, the mixture was suspended by adding 400 µL of ice-cold 100% ACN. Following centrifugation at 15,700× g for 10 min at 4 °C, the supernatant was transferred to a new tube and evaporated using a speed-vacuum concentrator. Next, the dried sample was diluted with 100 µL of 20% MeOH containing 0.1% formic acid, and a 5 µL aliquot was injected into a C18 column for LC–MS/MS analysis.
(§2) To identify the CYP isoforms involved in AHC metabolism, AHC (10 µM) was incubated with eleven cDNA-expressed recombinant CYP isoforms (CYP1A1, CYP1A2, CYP2A6, CYP2B6, CYP2C8, CYP2C9, CYP2C19, CYP2D6, CYP2E1, CYP3A4, and CYP3A5) in the presence of the NGS. […] However, the metabolites of AHC were not observed from reactions with other CYPs. Thus, in the metabolism of AHC in HLMs, CYP3A4 was involved as the main enzyme, and four types of metabolites were generated.

In the next data set the target is T2, CYP3A4 (Homo sapiens, UniProt P08684).
T2 construct: purchased Corning Gentest
T2 sequence (P08684 whole entry): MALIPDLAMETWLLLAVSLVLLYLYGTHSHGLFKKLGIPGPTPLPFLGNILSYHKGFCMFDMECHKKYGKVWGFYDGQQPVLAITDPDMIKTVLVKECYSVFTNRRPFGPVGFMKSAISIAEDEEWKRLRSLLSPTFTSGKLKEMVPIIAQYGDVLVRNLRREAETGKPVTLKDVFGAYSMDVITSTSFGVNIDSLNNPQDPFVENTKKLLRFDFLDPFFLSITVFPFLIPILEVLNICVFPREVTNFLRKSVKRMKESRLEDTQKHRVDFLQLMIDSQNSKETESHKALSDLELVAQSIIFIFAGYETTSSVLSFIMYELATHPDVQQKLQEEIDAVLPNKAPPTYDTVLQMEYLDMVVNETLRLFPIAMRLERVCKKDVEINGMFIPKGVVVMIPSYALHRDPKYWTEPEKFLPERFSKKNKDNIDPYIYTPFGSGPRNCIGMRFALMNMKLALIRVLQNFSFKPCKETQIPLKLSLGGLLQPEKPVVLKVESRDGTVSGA
Described as above. As to conditions: 10 µM AHC, 10 pmol recombinant CYP3A4, NGS, 37 °C, 60 min. As for the experimental part: as §1, §2

Turning to `CC(=O)O[C@@H]1[C@@H](C)CC[C@]2(O)[C@]3(C)CC(=O)O[C@]12[C@@]1(O)C(C)=C(C(C)C)C[C@@]31O` [AHC, anhydrocinnzeylanine], the “metabolic stability in HLMs (in words)” value in data set [1] (NGS) is recorded as “most rapid metabolization; also recorded: unique reduction in metabolic stability; also recorded: highest metabolic rate”. In addition, the “parent remaining after metabolism in HLMs (metabolized to)” value in data set [1] (β-NADPH) worked out at 3%. Besides, the “metabolites of AHC from reaction with CYP1A1” value on CYP1A1 was “not observed”. The “metabolism of AHC by CYP3A4” value at CYP3A4 is on record as “major CYP responsible for the metabolism of AHC; also recorded: predominantly metabolized by CYP3A4”.
